In patent US10364256B2 (GlaxoSmithKline Intellectual Property Development Limited, priority 2015, dated 2019):
Read-outs that look alike come from different tables or passages of the source.

Legend:
[1] = target: T1, Keap1 Kelch domain (321-609) / TAMRA-labeled 16mer NRF2 peptide (ETGE motif) (Homo sapiens, UniProt Q14145); assay: NRF2-Keap1 FP Assay (Keap1 Kelch fluorescence polarization); type: binding; details: 20 nM Keap1 (321-609), 8 nM Tamra labeled peptide
T1 construct: the Kelch domain (321-609) of Keap1 is used
T1 sequence (Q14145 321-609): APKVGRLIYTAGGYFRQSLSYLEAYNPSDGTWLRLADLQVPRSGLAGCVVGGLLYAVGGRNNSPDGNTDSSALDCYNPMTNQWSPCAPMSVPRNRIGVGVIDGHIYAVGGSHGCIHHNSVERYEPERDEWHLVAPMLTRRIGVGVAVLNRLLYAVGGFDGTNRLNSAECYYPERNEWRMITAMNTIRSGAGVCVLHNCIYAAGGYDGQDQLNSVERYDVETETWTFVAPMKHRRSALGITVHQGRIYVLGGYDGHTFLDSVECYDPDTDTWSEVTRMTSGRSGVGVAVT
Procedure, shortened: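 Compound dilutions (3-fold) were incubated 1 hr at room temperature with 20 nM Keap1 Kelch (321-609) and 8 nM TAMRA-labeled ETGE 16mer peptide. Buffer was 50 mM Tris pH 8.0, 100 mM NaCl, 5 mM MgCl2, 1 mM DTT, 2 mM CHAPS, 0.005% BSA. Fluorescence polarization (mP) was normalized to controls and fitted with a four-parameter equation to give pIC50.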

[2] = test system: NQO1 specific enzyme activity in BEAS-2B cells (marker for NRF2 activation); assay: BEAS-2B NQO1 MTT Assay; type: cell-based; details: Homo sapiens, compound incubated 48 hours, read-out: EC50 (NQO1 specific enzyme activity induction)
Procedure, shortened: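 NQO1 specific activity induction is derived from the rate of MTT reduction (ΔOD/min, 570 nm, 30 min kinetic read) in crude lysates of BEAS-2B cells exposed to compound for 48 h. A 3-parameter fit gives EC50, reported as pEC50; part of each lysate goes to Cell Titer Glo.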

[3] = target: T2, full length Keap1 protein / full length NRF2 protein (Homo sapiens, UniProt Q14145); assay: NRF2-Keap1 TR-FRET Assay; type: binding; details: 25 nM Keap1-FlagHis and 50 nM biotin-NRF2 added
T2 construct: full length NRF2 protein and full length Keap1 protein (Keap1 exists a dimer) are used; His
T2 sequence (Q14145 whole entry): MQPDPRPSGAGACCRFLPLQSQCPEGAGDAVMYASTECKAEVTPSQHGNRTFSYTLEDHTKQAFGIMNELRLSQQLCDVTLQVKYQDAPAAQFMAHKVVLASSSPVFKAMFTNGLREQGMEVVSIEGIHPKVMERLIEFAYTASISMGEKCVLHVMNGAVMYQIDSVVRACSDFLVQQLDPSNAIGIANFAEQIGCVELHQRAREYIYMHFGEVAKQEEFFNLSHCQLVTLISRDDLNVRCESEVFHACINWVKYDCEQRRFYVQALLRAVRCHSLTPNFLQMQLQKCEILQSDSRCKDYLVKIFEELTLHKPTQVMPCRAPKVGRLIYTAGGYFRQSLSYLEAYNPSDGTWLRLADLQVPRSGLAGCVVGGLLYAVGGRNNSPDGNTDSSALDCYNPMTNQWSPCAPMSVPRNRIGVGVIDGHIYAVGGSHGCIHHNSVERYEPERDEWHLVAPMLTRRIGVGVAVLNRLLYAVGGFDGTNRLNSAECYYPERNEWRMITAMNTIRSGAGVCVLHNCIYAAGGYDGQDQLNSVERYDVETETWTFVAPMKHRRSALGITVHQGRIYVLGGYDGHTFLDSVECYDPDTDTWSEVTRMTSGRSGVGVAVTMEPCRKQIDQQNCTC
Excerpt: In the NRF2-Keap1 TR-FRET (time-resolved fluorescence resonance energy transfer) assay, full length NRF2 protein and full length Keap1 protein (Keap1 exists a dimer) are used. The assay detects the ability of compound to displace the binding of FlagHis-tagged Keap1 with biotinylated, Avi-tagged NRF2 protein. Biotin-NRF2 binds to streptavidin-europium (a component of the detection mix) and Keap1-FlagHis is recognized by anti-Flag APC (allophycocyanin) antibody (also a component of the detection mix). If binding occurs between the two proteins, there will be an energy transfer from the Eu+3 (donor) at 615 nm to the APC (acceptor) at 665 nm. A potential Keap1 inhibitor will cause a reduction in the TR-FRET signal by interfering with the binding of Keap1 to NRF2.
One hundred nanoliters of 100× compound dose response curves (serial 3-fold dilutions) in DMSO are stamped using an Echo liquid handling system (Labcyte) into 384-well, low volume, black assay plates (Greiner, #784076), with DMSO in columns 6 and 18. The top concentration of compound is located in columns 1 and 13. All reagents are diluted in assay buffer (50 mM Tris, pH 8.0, 5 mM MgCl2, 100 mM NaCl, 0.005% BSA, 1 mM DTT, and 2 mM CHAPS). The BSA, DTT, and CHAPS are added to the assay buffer on the day of assay. Using a Multidrop Combi (Thermo Electron Corporation) equipped with a metal tip dispenser, 5 ul of 25 nM Keap1-FlagHis protein is added to all wells of the compound plate, with the exception of the wells in column 18. Wells in column 18 receive 5 ul of assay buffer instead. Plates are centrifuged at 500 rpm for 1 minute, covered with a plate lid, and incubated at 37° C. for 2.25 hours. Plates are then removed from the incubator and allowed to cool to RT for 15 minutes. Five microliters of 50 nM biotin-NRF2 protein is then added to all wells of the plates and the plates are spun at 500 rpm for 1 minute, followed by incubating at 4° C. for 1.25 hours. The plates are then allowed to warm to RT for 15 minutes, followed by the addition of 10 ul of detection mix (1 nM Streptavidin Eu+ W1024 and 5 ug/ml mouse anti-DYKDDDDK IgG conjugated to SureLight APC antibody; both from Columbia Biosciences) to all wells. Plates are spun at 500 rpm for 1 minute, incubated for 1 hour at RT, and read on an Envision plate reader using a 320 nm excitation filter and 615 nm and 665 nm emission filters. Compound response (% inhibition) and potency (pIC50) are calculated based on the ratio of the two emissions (665 nm/615 nm) and then the transformed data is normalized against controls in the assay (control 1=1% DMSO in the presence of NRF2 and Keap1 protein and control 2=1% DMSO in the absence of protein). Data analysis is handled using the software package Abase XE (Surrey, United Kingdom). The % inhibition values are calculated from the ratio (transformed) data by the equation: 100−(100*(compound response−average control 2)/(average control 1−average control2)). For calculation of pIC50s, Abase XE uses a four parameter equation. pIC50 is the negative log of the IC50.

| SMILES | IC50 [1] | EC50 [2] | IC50 [3] | EC50 ([2]; BEAS-2B, 48 h) |
| --- | --- | --- | --- | --- |
| CN(C(=O)c1cccc(-c2cccc(-n3ncc(C(=O)O)c3C3CC3)c2)c1F)C1CCCCC1 [Example 5, 1-(3-{3-[Cyclohexyl(methyl)carbamoyl]-2-fluorophenyl}phenyl)-5-cyclopropyl-1H-pyrazole-4-carboxylic Acid] | 100 to 1000 nM | 1000 to 10000 nM | 1000 to 10000 nM |  |
| CC1(C)CCCN(C(=O)c2cccc(-c3cccc(-n4ncc(C(=O)O)c4C4CC4)c3)c2F)C1 [Example 6, 5-Cyclopropyl-1-{3-[3-(3,3-dimethylpiperidine-1-carbonyl)-2-fluorophenyl]phenyl}-1H-pyrazole-4-carboxylic Acid] | 10 to 100 nM | 1000 to 10000 nM | 100 to 1000 nM |  |
| O=C(O)c1cnn(-c2cccc(-c3cccc(C(=O)N4CCCCCC4)c3F)c2)c1C1CC1 [Example 7, 1-{3-[3-(azepane-1-carbonyl)-2-fluorophenyl]phenyl}-5-cyclopropyl-1H-pyrazole-4-carboxylic Acid] | 10 to 100 nM | 1000 to 10000 nM | 1000 to 10000 nM |  |
| CCCN(CC1CC1)C(=O)c1cccc(-c2cccc(-n3ncc(C(=O)O)c3C3CC3)c2)c1F [Example 9, 5-Cyclopropyl-1-(3-{3-[(cyclopropylmethyl)(propyl)carbamoyl]-2-fluorophenyl}phenyl)-1H-pyrazole-4-carboxylic Acid] | 10 to 100 nM | 1000 to 10000 nM | 1000 to 10000 nM |  |
| O=C(O)c1cnn(-c2cccc(-c3cccc(C(=O)N4CCCCCC4)c3)c2)c1C1CC1 [Example 10, 1-{3-[3-(Azepane-1-carbonyl)phenyl]phenyl}-5-cyclopropyl-1H-pyrazole-4-carboxylic Acid] | 100 to 1000 nM | 1000 to 10000 nM | 1000 to 10000 nM |  |
| CC(C)Oc1cccc(-c2cccc(-n3ncc(C(=O)O)c3C(F)(F)F)c2)c1 [Example 11, 1-{3-[3-(propan-2-yloxy)phenyl]phenyl}-5-(trifluoromethyl)-1H-pyrazole-4-carboxylic Acid] | 1000 to 10000 nM | 1000 to 10000 nM | 10000 to 100000 nM |  |
| CN(CC1CCCC1)C(=O)c1cccc(-c2cccc(-n3ncc(C(=O)O)c3C3CC3)c2)c1F [Example 12, 1-(3-{3-[(Cyclopentylmethyl)(methyl)carbamoyl]-2-fluorophenyl}phenyl)-5-cyclopropyl-1H-pyrazole-4-carboxylic Acid] | 10 to 100 nM | 1000 to 10000 nM | 100 to 1000 nM |  |
| CCCN(CC1CC1)C(=O)c1cccc(-c2cccc(-n3ncc(C(=O)O)c3C3CC3)c2)c1Cl [Example 15, 1-(3-{2-Chloro-3-[(cyclopropylmethyl)(propyl)carbamoyl]phenyl}phenyl)-5-cyclopropyl-1H-pyrazole-4-carboxylic Acid] | 100 to 1000 nM | 1000 to 10000 nM | 1000 to 10000 nM |  |
| CCCN(CC1CC1)C(=O)c1cccc(-c2cccc(-n3ncc(C(=O)O)c3C3CC3)c2)c1C [Example 16, 5-Cyclopropyl-1-(3-{3-[(cyclopropylmethyl)(propyl)carbamoyl]-2-methylphenyl}phenyl)-1H-pyrazole-4-carboxylic Acid] | 100 to 1000 nM | 1000 to 10000 nM | 1000 to 10000 nM |  |
| O=C(O)c1cnn(-c2cccc(-c3cccc(C(=O)N4CCCC(C(F)(F)F)C4)c3F)c2)c1C1CC1 (stereo not drawn) [Example 18, 5-Cyclopropyl-1-(3-{2-fluoro-3-[3-(trifluoromethyl)piperidine-1-carbonyl]phenyl}phenyl)-1H-pyrazole-4-carboxylic Acid] | 100 to 1000 nM | 1000 to 10000 nM | 1000 to 10000 nM |  |
| O=C(O)c1cnn(-c2cccc(-c3cccc(C(=O)N4CCCCC45CC5)c3F)c2)c1C1CC1 [Example 19, 1-[3-(3-{4-Azaspiro[2.5]octane-4-carbonyl}-2-fluorophenyl)phenyl]-5-cyclopropyl-1H-pyrazole-4-carboxylic Acid] | 100 to 1000 nM | 1000 to 10000 nM | 1000 to 10000 nM |  |
| O=C(O)c1cnn(-c2cccc(-c3cccc(C(=O)N4CCCCC4)c3F)c2)c1C1CC1 [Example 20, 5-Cyclopropyl-1-{3-[2-fluoro-3-(piperidine-1-carbonyl)phenyl]phenyl}-1H-pyrazole-4-carboxylic Acid] | 100 to 1000 nM | 1000 to 10000 nM | 1000 to 10000 nM |  |
| COCC1CCCCN1C(=O)c1cccc(-c2cccc(-n3ncc(C(=O)O)c3C3CC3)c2)c1F (stereo not drawn) [Example 22, 5-Cyclopropyl-1-(3-{2-fluoro-3-[2-(methoxymethyl)piperidine-1-carbonyl]phenyl}phenyl)-1H-pyrazole-4-carboxylic Acid] | 10 to 100 nM | 1000 to 10000 nM | 1000 to 10000 nM |  |
| O=C(O)c1cnn(-c2cccc(-c3cccc(C(=O)N(CCC(F)(F)F)CC4CC4)c3F)c2)c1C1CC1 [Example 23, 5-Cyclopropyl-1-(3-{3-[(cyclopropylmethyl)(3,3,3-trifluoropropyl)carbamoyl]-2-fluorophenyl}phenyl)-1H-pyrazole-4-carboxylic Acid] | 100 to 1000 nM | 1000 to 10000 nM | 1000 to 10000 nM |  |
| CC1CCC(C)N1C(=O)c1cccc(-c2cccc(-n3ncc(C(=O)O)c3C3CC3)c2)c1F (stereo not drawn) [Example 24, 5-Cyclopropyl-1-{3-[3-(2,5-dimethylpyrrolidine-1-carbonyl)-2-fluorophenyl]phenyl}-1H-pyrazole-4-carboxylic Acid] | 100 to 1000 nM | 1000 to 10000 nM | 1000 to 10000 nM |  |
| CCCC1CCCN1C(=O)c1cccc(-c2cccc(-n3ncc(C(=O)O)c3C3CC3)c2)c1F (stereo not drawn) [Example 26, 5-Cyclopropyl-1-{3-[2-fluoro-3-(2-propylpyrrolidine-1-carbonyl)phenyl]phenyl}-1H-pyrazole-4-carboxylic Acid] | 10 to 100 nM | 1000 to 10000 nM | 100 to 1000 nM |  |
| CCCC1COCCN1C(=O)c1cccc(-c2cccc(-n3ncc(C(=O)O)c3C3CC3)c2)c1F (stereo not drawn) [Example 27, 5-Cyclopropyl-1-{3-[2-fluoro-3-(3-propylmorpholine-4-carbonyl)phenyl]phenyl}-1H-pyrazole-4-carboxylic Acid] | 10 to 100 nM | 1000 to 10000 nM | 100 to 1000 nM |  |
| O=C(O)c1cnn(-c2cccc(-c3cccc(C(=O)N4C5CCC4COC5)c3F)c2)c1C1CC1 [Example 32, 5-cyclopropyl-1-[3-(2-fluoro-3-{3-oxa-8-azabicyclo[3.2.1]octane-8-carbonyl}phenyl)phenyl]-1H-pyrazole-4-carboxylic Acid] | 100 to 1000 nM | 1000 to 10000 nM | 1000 to 10000 nM |  |
| Cc1ccnn1-c1cccc(-c2cccc(-n3ncc(C(=O)O)c3C3CC3)c2)c1 [Example 36, 5-Cyclopropyl-1-{3-[3-(5-methyl-1H-pyrazol-1-yl)phenyl]phenyl}-1H-pyrazole-4-carboxylic Acid] | 100 to 1000 nM |  | 1000 to 10000 nM | 1000 to 10000 nM |
| Cc1ccnn1-c1cccc(-c2cccc(-n3ncc(C(=O)O)c3C3CC3)c2)c1F [Example 39, 5-cyclopropyl-1-{3-[2-fluoro-3-(5-methyl-1H-pyrazol-1-yl)phenyl]phenyl}-1H-pyrazole-4-carboxylic Acid] | 100 to 1000 nM | 1000 to 10000 nM | 1000 to 10000 nM |  |
